Reference: ChEMBL document CHEMBL3124787, “Discovery of novel bis-oxazolidinone compounds as potential potent and selective antitubercular agents” (Bioorg Med Chem Lett, 2014)
In brackets after ≈: the same amount, converted by molar mass.

What was measured:
Pseudomonas aeruginosa = assay: Antibacterial activity against Pseudomonas aeruginosa ATCC 27853 assessed as growth inhibition after 18 hrs by broth microdilution method; assay type: functional; conditions: ATCC 27853, 18 h
Escherichia coli = assay: Antibacterial activity against Escherichia coli ATCC 25922 assessed as growth inhibition after 18 hrs by broth microdilution method; assay type: functional; conditions: ATCC 25922, 18 h
Staphylococcus aureus [1] = assay: Antibacterial activity against methicillin-resistant Staphylococcus aureus ATCC 43300 assessed as growth inhibition after 18 hrs by broth microdilution method; assay type: functional; conditions: ATCC 43300, 18 h
Staphylococcus aureus [2] = assay: Antibacterial activity against methicillin-susceptible Staphylococcus aureus ATCC 25923 assessed as growth inhibition after 18 hrs by broth microdilution method; assay type: functional; conditions: ATCC 25923, 18 h
Staphylococcus aureus [3] = assay: Antibacterial activity against methicillin-susceptible Staphylococcus aureus CMCC 26003 assessed as growth inhibition after 18 hrs by broth microdilution method; assay type: functional; conditions: CMCC 26003, 18 h
[4] = Aqueous solubility of the compound by HPLC analysis; assay type: physicochemical
Staphylococcus aureus [5] = assay: Antibacterial activity against methicillin-susceptible Staphylococcus aureus ATCC 29213 assessed as growth inhibition after 18 hrs by broth microdilution method; assay type: functional; conditions: ATCC 29213, 18 h
Staphylococcus aureus [6] = assay: Antibacterial activity against methicillin-resistant Staphylococcus aureus ATCC 33591 assessed as growth inhibition after 18 hrs by broth microdilution method; assay type: functional; conditions: ATCC 33591, 18 h
Staphylococcus aureus [7] = assay: Antibacterial activity against methicillin-susceptible Staphylococcus aureus ATCC 6538 assessed as growth inhibition after 18 hrs by broth microdilution method; assay type: functional; conditions: ATCC 6538, 18 h
[8] = test system: Mycolicibacterium smegmatis; assay: Antibacterial activity against Mycobacterium smegmatis assessed as growth inhibition after 18 hrs by broth microdilution method; assay type: functional
[9] = Lipophilicity, log P of the compound by HPLC analysis; assay type: physicochemical
[10] = test system: Mycobacterium tuberculosis; assay: Antitubercular activity against Mycobacterium tuberculosis H37RV ATCC 27294 assessed as growth inhibition after 3 to 11 days by microdilution method; assay type: functional

Structure (SMILES)	MIC99 (Pseudomonas aeruginosa) [µg/mL]	MIC99 (Escherichia coli) [µg/mL]	MIC99 (Staphylococcus aureus [1]) [µg/mL]	MIC99 (Staphylococcus aureus [2]) [µg/mL]	MIC99 (Staphylococcus aureus [3]) [µg/mL]	solubility [4] [µM]	MIC99 (Staphylococcus aureus [5]) [µg/mL]	MIC99 (Staphylococcus aureus [6]) [µg/mL]	MIC99 (Staphylococcus aureus [7]) [µg/mL]	MIC99 [8] [µg/mL]	logP [9]	MIC [10] [µg/mL]
CC(=O)NC[C@H]1CN(c2ccc(OC[C@@H](O)CNCCC(C)C)c(F)c2)C(=O)O1	> 32	> 32	> 32	> 32	> 32	385 (≈ 158 µg/mL)	> 32	> 32	> 32	> 64	1.17	–
CC(=O)NC[C@H]1CN(c2ccc(OC[C@H](O)CNc3ccncc3)c(F)c2)C(=O)O1	> 32	> 32	> 32	> 32	> 32	24600 (≈ 10300 µg/mL)	> 32	> 32	> 32	> 64	0.02	–
CC(=O)NC[C@H]1CN(c2ccc(OC[C@@H](O)CNC3CC3)c(F)c2)C(=O)O1	> 32	> 32	> 32	> 32	> 32	96000 (≈ 36600 µg/mL)	> 32	> 32	> 32	32 (≈ 83.9 µM)	0.02	–
CC(=O)NC[C@H]1CN(c2ccc(OC[C@H](O)CNC3CC3)c(F)c2)C(=O)O1	> 32	> 32	> 32	> 32	> 32	2200 (≈ 840 µg/mL)	> 32	> 32	> 32	> 64	-0.1	–
CC(=O)NC[C@H]1CN(c2ccc(OC[C@H](O)CNCCC(C)C)c(F)c2)C(=O)O1	> 32	> 32	> 32	> 32	> 32	7280 (≈ 2990 µg/mL)	> 32	> 32	> 32	> 64	1.19	–
CC(=O)NC[C@H]1CN(c2ccc(OC[C@@H]3CNC(=O)O3)c(F)c2)C(=O)O1	–	–	–	–	–	2720 (≈ 999 µg/mL)	–	–	–	–	0.01	8 (≈ 21.8 µM)
CC(=O)NC[C@H]1CN(c2ccc(NC[C@H](O)COc3ccc(N4C[C@H](CNC(C)=O)OC4=O)cc3F)c(F)c2)C(=O)O1	–	–	–	–	–	81 (≈ 47.9 µg/mL)	–	–	–	–	0.59	32 (≈ 54.1 µM)
CC(=O)NC[C@H]1CN(c2ccc(OC[C@@H]3CN(c4ccc(N5C[C@H](CNC(C)=O)OC5=O)cc4F)C(=O)O3)c(F)c2)C(=O)O1	–	–	–	–	–	333 (≈ 206 µg/mL)	–	–	–	–	0.43	16 (≈ 25.9 µM)
O=C1O[C@H](COc2ccccc2F)CN1c1ccccc1	–	–	–	–	–	441 (≈ 127 µg/mL)	–	–	–	–	3.19	32 (≈ 111 µM)
COc1ccc(NC[C@@H](O)COc2ccc(N3C[C@H](CNC(C)=O)OC3=O)cc2F)cc1	> 32	> 32	16 (≈ 35.8 µM)	16 (≈ 35.8 µM)	8 (≈ 17.9 µM)	1.3 (≈ 0.582 µg/mL)	16 (≈ 35.8 µM)	16 (≈ 35.8 µM)	8 (≈ 17.9 µM)	64 (≈ 143 µM)	1.15	–
CC(=O)NC[C@H]1CN(c2ccc(OC[C@H](O)CNc3ccccc3)c(F)c2)C(=O)O1	> 32	> 32	8 (≈ 19.2 µM)	8 (≈ 19.2 µM)	8 (≈ 19.2 µM)	296 (≈ 124 µg/mL)	8 (≈ 19.2 µM)	8 (≈ 19.2 µM)	4 (≈ 9.58 µM)	> 64	0.59	–
CC(=O)NC[C@H]1CN(c2ccc(OC[C@@H](O)CNc3ccc(C#N)cc3)c(F)c2)C(=O)O1	> 32	> 32	8 (≈ 18.1 µM)	16 (≈ 36.2 µM)	8 (≈ 18.1 µM)	47 (≈ 20.8 µg/mL)	16 (≈ 36.2 µM)	16 (≈ 36.2 µM)	4 (≈ 9.04 µM)	16 (≈ 36.2 µM)	2.12	–
CC(=O)NC[C@H]1CN(c2ccc(OC[C@H](O)CNc3ccc(C#N)cc3)c(F)c2)C(=O)O1	> 32	> 32	16 (≈ 36.2 µM)	16 (≈ 36.2 µM)	8 (≈ 18.1 µM)	69 (≈ 30.5 µg/mL)	16 (≈ 36.2 µM)	16 (≈ 36.2 µM)	8 (≈ 18.1 µM)	32 (≈ 72.3 µM)	1.29	–
CC(=O)NC[C@H]1CN(c2ccc(OC[C@@H](O)CNc3cc(C(F)(F)F)cc(C(F)(F)F)c3)c(F)c2)C(=O)O1	> 32	> 32	16 (≈ 28.9 µM)	16 (≈ 28.9 µM)	16 (≈ 28.9 µM)	–	16 (≈ 28.9 µM)	32 (≈ 57.8 µM)	8 (≈ 14.5 µM)	16 (≈ 28.9 µM)	3.1	–
CC(=O)NC[C@H]1CN(c2ccc(OC[C@H](O)CNc3cc(C(F)(F)F)cc(C(F)(F)F)c3)c(F)c2)C(=O)O1	> 32	> 32	> 32	> 32	> 32	22 (≈ 12.2 µg/mL)	> 32	> 32	32 (≈ 57.8 µM)	> 64	3.01	–
CC(=O)NC[C@H]1CN(c2ccc(OC[C@@H](O)CNc3ccccn3)c(F)c2)C(=O)O1	> 32	> 32	> 32	> 32	> 32	22200 (≈ 9290 µg/mL)	> 32	> 32	> 32	> 64	1.37	–
CC(=O)NC[C@H]1CN(c2ccc(OC[C@H](O)CNc3ccccn3)c(F)c2)C(=O)O1	> 32	> 32	> 32	> 32	> 32	35100 (≈ 14700 µg/mL)	> 32	> 32	> 32	> 64	1.6	–
CC(=O)NC[C@H]1CN(c2ccc(OC[C@@H](O)CNc3cccnc3)c(F)c2)C(=O)O1	> 32	> 32	> 32	> 32	> 32	3040 (≈ 1270 µg/mL)	> 32	> 32	> 32	> 64	0.02	–
CC(=O)NC[C@H]1CN(c2ccc(OC[C@H](O)CNc3cccnc3)c(F)c2)C(=O)O1	> 32	> 32	32 (≈ 76.5 µM)	32 (≈ 76.5 µM)	32 (≈ 76.5 µM)	10100 (≈ 4240 µg/mL)	32 (≈ 76.5 µM)	32 (≈ 76.5 µM)	32 (≈ 76.5 µM)	> 64	-0.18	–
CC(=O)NC[C@H]1CN(c2ccc(OC[C@@H](O)CNc3ccncc3)c(F)c2)C(=O)O1	> 32	> 32	> 32	> 32	> 32	17700 (≈ 7420 µg/mL)	> 32	> 32	> 32	> 64	-0.04	–
NNC(=O)c1ccncc1 [ISONIAZID]	–	–	–	–	–	–	–	–	–	4 (≈ 29.2 µM)	–	0.0625 (≈ 0.456 µM)
